Laboratory results: article PMC4719211, “Comparative Pharmacokinetics of three major bioactive components in rats after oral administration of Typhae Pollen-Trogopterus Feces drug pair before and after compatibility” (DARU Journal of Pharmaceutical Sciences, 2016)

Test: Pharmacokinetic study in rats after oral administration of Typhae Pollen / Typhae Pollen-Trogopterus Feces decoctions (plasma, UPLC-TQ/MS)
Assay type: in vivo, female Sprague–Dawley (SD) rats
Conditions: n = 6, noncompartment model; for Cmax / Tmax / half-life: female, Sprague-Dawley, rat, po; for AUC0~t: rat plasma
Procedure: An ACQUITY UPLC BEH C18 column (2.1 mm × 100 mm, 1.7 μm, Waters Corp., Milford, MA, USA) was applied and the column temperature was maintained at 35 °C. The mobile phase was composed of A (0.1 % aqueous formic acid) and B (acetonitrile) using a gradient elution of 5–10 % B at 0–1 min, 10–30 % B at 1–6 min, 30–40 % B at 6–7 min, 40–95 % B at 7–8 min, 95–5 % B at 8–9 min, […] with a flow rate set at 0.4 mL/min. The auto-sampler was conditioned at 4 °C and the injection volume was 5 μL.
Mass spectrometry detection was performed by using a Xevo Triple Quadrupole MS (Waters Corp., Milford, MA) equipped with an electrospray ionization source (ESI). The ESI source was set in positive ionization mode. The scanning mode was set multiple reaction monitoring (MRM) mode. Parameters set in the source were as follows: the capillary voltage at 1 kV; sampling cone voltage of 30 V; source temperature […]; desolvation temperature 550 °C; dwell time was automatically set by MassLynx (Waters Corp., Milford, MA, USA).
A 200 μL aliquot of plasma sample was added with 10 μL diphenhydramine hydrochloride working solution and 600 μL of methanol. After vortex for 2 min and centrifugation at 13,000 rpm for 10 min, the supernatant was transferred to another 1.5 mL tube and concentrated in the centrifuge enrichment apparatus at 37 °C.
Finally, each residue was reconstituted in 200 μL 70 % methanol, then vortexed for 3 min and centrifuged at 13,000 rpm for 10 min. 5 μL of supernatant was injected into the UPLC-TQ/MS system for analysis.
All experiments were performed on female Sprague–Dawley (SD) rats, weighing 220–250 g, obtained from Shanghai Slac Laboratory Animal Co., Ltd. (Shanghai, China). They were kept in plastic cages at 22 ± 2 °C and a relative humidity of 50–65 %, with free access to pellet food and water on a 12 h light/dark cycle. Animal welfare and experimental procedures strictly conformed to the Guide for the Care and Use of Laboratory Animals and the related ethics regulations of Nanjing University of Chinese Medicine.
For pharmacokinetic studies, the SD rats were divided into four groups randomly (n = 6 per group), and housed with unlimited access to food before the experiment while water available. Each group except the control group was oral administration of TP (CN) single drug decoction, TP-TF co-decoction (CM) and TP-TF mixed decoction (CB) at a dosage of 5 g/kg, 10 g/kg, 10 g/kg body weight, respectively. Blood samples (0.5 mL) were collected at certain time points and placed at a 1.5 mL tube before oral (0 min) and after oral (5, 15, 30, 45, 60, 120, 240, 360, 480, 720 and 1440 min) administration. Afterwards all the blood samples were centrifuged at 13,000 rpm for 10 min and stored at −80 °C until analysis.
The mean plasma concentration-time profiles of typhaneoside, vanillic acid and p-coumaric acid were determined after oral administration with different compatibility of Typhae Pollen-Trogopterus Feces drug pair in rats, the concentration-time curves are presents in Fig. 3, and the noncompartment model pharmacokinetic parameters including maximum plasma concentration (Cmax), time to reach the maximum concentrations (Tmax), half-time (T1/2), area under concentration-time curve (AUC 0~t) are summarized in Table 2.

[1] = plasma, 5 g/kg, oral TP single drug decoction (CN)
[2] = plasma, 10 g/kg, oral TP-TF co-decoction (CM)
[3] = plasma, 10 g/kg, oral TP-TF mixed decoction (CB)
[4] = oral TP single drug decoction (CN), 5 g/kg
[5] = oral TP-TF co-decoction (CM), 10 g/kg
[6] = oral TP-TF mixed decoction (CB), 10 g/kg
[7] = in vivo, 5 g/kg, oral TP single drug decoction (CN)
[8] = in vivo, 10 g/kg, oral TP-TF co-decoction (CM)
[9] = in vivo, 10 g/kg, oral TP-TF mixed decoction (CB)

O=C(O)/C=C/c1ccc(O)cc1 [P-coumaric acid, p-coumaric acid]
Cmax [1]: 4900 ± 1890 ng/mL | Tmax [1]: 1.08 ± 1.67 h | half-life [1]: 3.67 ± 1.82 h | Cmax [2]: 5110 ± 3670 ng/mL | Tmax [2]: 1.42 ± 1.39 h | half-life [2]: 10.1 ± 7.86 h | Cmax [3]: 4190 ± 844 ng/mL | Tmax [3]: 0.46 ± 0.4 h | half-life [3]: 10.1 ± 10.2 h | AUC0~t [4]: 36881.01 ± 25783.25 ng/h/mL | AUC0~t [5]: 41512.56 ± 41763.28 ng/h/mL | AUC0~t [6]: 17689.11 ± 3882.21 ng/h/mL

COc1cc(-c2oc3cc(O)cc(O)c3c(=O)c2O[C@@H]2O[C@H](CO[C@@H]3O[C@@H](C)[C@H](O)[C@@H](O)[C@H]3O)[C@@H](O)[C@H](O)[C@H]2O[C@@H]2O[C@@H](C)[C@H](O)[C@@H](O)[C@H]2O)ccc1O [Typhaneoside, typhaneoside]
Cmax [7]: 76.4 ± 53.2 ng/mL | Tmax [7]: 2.95 ± 2.88 h | half-life [7]: 3.35 ± 2.58 h | Cmax [8]: 371 ± 316 ng/mL | Tmax [8]: 0.24 ± 0.15 h | half-life [8]: 1.91 ± 1.26 h | Cmax [9]: 214 ± 73.7 ng/mL | Tmax [9]: 0.21 ± 0.08 h | half-life [9]: 1.37 ± 0.54 h | AUC0~t [4]: 268.31 ± 167.71 ng/h/mL | AUC0~t [5]: 333.46 ± 191.84 ng/h/mL | AUC0~t [6]: 275.62 ± 206.06 ng/h/mL

COc1cc(C(=O)O)ccc1O [Vanillic acid, vanillic acid]
Cmax [1]: 2210 ± 1190 ng/mL | Tmax [1]: 1.25 ± 0.71 h | half-life [1]: 3.69 ± 0.87 h | Cmax [2]: 3870 ± 2530 ng/mL | Tmax [2]: 1.47 ± 3.2 h | half-life [2]: 11.2 ± 13.6 h | Cmax [3]: 1450 ± 501 ng/mL | Tmax [3]: 0.17 ± 0.09 h | half-life [3]: 8.88 ± 3.76 h | AUC0~t [4]: 10445.53 ± 4148.68 ng/h/mL | AUC0~t [5]: 14137.57 ± 4540.37 ng/h/mL | AUC0~t [6]: 6193.78 ± 4499.17 ng/h/mL
